In patent US8383581B2, “Short-chain peptides as parathyroid hormone (PTH) receptor agonist” (Cadila Healthcare Limited, priority 2009, dated 2013):
Where a SMILES comes first, the peptide text is derived from it. [ ]: non-standard residue; d: D form. ξ: configuration not given here. αMePhe(2,6-F2) = C[C@](N)(Cc1c(F)cccc1F)C(=O)O; ξαMePhe(2,6-F2) = CC(N)(Cc1c(F)cccc1F)C(=O)O; αMePhe(2-F) = C[C@](N)(Cc1ccccc1F)C(=O)O; ξαMePhe(2-F) = CC(N)(Cc1ccccc1F)C(=O)O; hArg = N=C(N)NCCCC[C@H](N)C(=O)O; Cit = NC(=O)NCCC[C@H](N)C(=O)O; Nle = CCCC[C@H](N)C(=O)O; ξαMeP = CC1(C(=O)O)CCCN1; Ac5c = NC1(C(=O)O)CCCC1; Ac3c = NC1(C(=O)O)CC1; Aib = CC(C)(N)C(=O)O

Legend:
Type in all cases: in vitro ADME
[1] = Stability of peptides in human liver microsomes; conditions: human, microsomes; for % degradation of peptides in 24 h when incubated with liver microsomes: 2 μM, pH 7.8
Protocol: (§1) b) Stability of Peptides in Human Plasma, Simulated Gastric Fluid, Intestinal Fluid and Liver Microsomes (Ex-Vivo): Different short-chain peptides (final concentration 2 μM) were incubated with either pooled human plasma (7.5 μL) or simulated gastric fluid (pH 1.5; composition HCl, NaCl and Pepsin) or simulated intestinal fluid (pH 7.5) or human liver microsomes, for 0, 2, 4, 6, 12 and 24 h (37° C.; 50 mM triethanolamine-HCl buffer; pH 7.8). Concentrations of human plasma/simulated gastric fluid/simulated intestinal fluid/human liver microsomes were selected in preliminary experiments to provide degradation of approximately 50% of PTH(1-34) within 1 h, therefore allowing time-dependent degradation to be viewed over 24 h. Reactions were terminated by the addition of TFA/H2O ([…], 10% (v/v)). The reaction products were then applied to a Vydac C18 analytical column (4.6×250-mm) and the major degradation fragment separated from intact short-chain peptides. The column was equilibrated with TFA/H20, at a flow rate of 1 mL/min. Using 0.1% (v/v) TFA in 70% acetonitrile/H2O, the concentration of acetonitrile in the eluting solvent was raised from 0% to 28% over 10 min and from 28% to 42% over 30 min. The absorbance was monitored at 206 nm using UV detector and peaks were collected manually prior to ESI-MS analysis. Area under the curve was measured for test peptides and their metabolites and percentage degradation were calculated at each time point over a period of 24 h. Stability study results of selected peptides, in human plasma, simulated gastric fluid, intestinal fluid and liver microsomes (in vitro) are listed in Table 4.

[2] = Stability of peptides in simulated gastric fluid (pH 1.5; HCl, NaCl and Pepsin); conditions: pH 1.5; for % degradation of peptides in 24 h when incubated with simulated gastric fluid: 2 μM; for half-life / half-life (t1/2) in simulated gastric fluid: simulated gi fluid
Protocol: as §1

[3] = Stability of peptides in human plasma; conditions: human, plasma; for metabolised at 24 h, 2 μM: pH 7.8
Protocol: as §1

[4] = Stability of peptides in simulated intestinal fluid (pH 7.5); conditions: pH 7.5; for half-life / half-life (t1/2) in simulated intestinal fluid: simulated gi fluid; for % degradation of peptides in 24 h when incubated with simulated intestinal fluid: 2 μM
Protocol: as §1

| Structure (SMILES) | half-life [1] [h] | % degradation of peptides in 24 h when incubated with liver microsomes [1] [%] | % degradation of peptides in 24 h when incubated with simulated gastric fluid [2] [%] | half-life [2] [h] | half-life (t1/2) in human plasma [3] | metabolised at 24 h, 2 μM [3] [%] | half-life [4] [h] | % degradation of peptides in 24 h when incubated with simulated intestinal fluid [4] [%] | half-life [3] [h] | half-life (t1/2) in simulated gastric fluid [2] | half-life (t1/2) in simulated intestinal fluid [4] | half-life (t1/2) in liver microsomes [1] |
| --- | --- | --- | --- | --- | --- | --- | --- | --- | --- | --- | --- | --- |
| CCCC[C@H](NC(=O)C(C)(Cc1c(F)cccc1F)NC(=O)[C@H](CCC(N)=O)NC(=O)[C@@H](NC(=O)[C@H](CCC(=O)O)NC(=O)C(C)(C)NC(=O)[C@@H](NC(=O)C1(N)CC1)C(C)C)[C@@H](C)CC)C(=O)N[C@@H](Cc1c[nH]cn1)C(=O)N[C@@H](CCC(N)=O)C(=O)N[C@@H](CCCCNC(=N)N)C(=O)N1CCCC1(C)C(=O)N[C@@H](CCCCN)C(=O)NC(C)(Cc1ccccc1F)C(N)=O (stereo partly drawn) [Seq. ID. 75] (H-[Ac3c]V[Aib]EIQ[ξαMePhe(2,6-F2)][Nle]HQ[hArg][ξαMeP]K[ξαMePhe(2-F)]-NH2) | 0.5 | 100 | 100 | 0.5 | (9) h | 78 | 0.5 | 100 | – | – | – | – |
| CCCC[C@H](NC(=O)[C@](C)(Cc1c(F)cccc1F)NC(=O)[C@H](CCC(N)=O)NC(=O)[C@@H](NC(=O)[C@H](CCC(=O)O)NC(=O)C(C)(C)NC(=O)[C@@H](NC(=O)C1(N)CCCC1)C(C)C)[C@@H](C)CC)C(=O)N[C@@H](Cc1c[nH]cn1)C(=O)N[C@@H](CCC(N)=O)C(=O)N[C@@H](CCCCNC(=N)N)C(=O)NC(C)(C)C(=O)N[C@@H](CCCCN)C(=O)N[C@@](C)(Cc1ccccc1F)C(N)=O [Seq. ID. 85] (H-[Ac5c]V[Aib]EIQ[αMePhe(2,6-F2)][Nle]HQ[hArg][Aib]K[αMePhe(2-F)]-NH2) | 0.5 | 100 | 100 | 0.5 | (9) h | 77 | 0.5 | 100 | – | – | – | – |
| CCCC[C@H](NC(=O)C(C)(Cc1ccccc1F)NC(=O)[C@H](CCC(N)=O)NC(=O)[C@@H](NC(=O)[C@H](CCC(=O)O)NC(=O)C(C)(C)NC(=O)[C@@H](NC(=O)C1(N)CC1)C(C)C)[C@@H](C)CC)C(=O)N[C@@H](Cc1c[nH]cn1)C(=O)N[C@@H](CCC(N)=O)C(=O)N[C@@H](CCCCNC(=N)N)C(=O)NC(C)(C)C(=O)N[C@@H](CCCCN)C(=O)NC(C)(Cc1c(F)cccc1F)C(N)=O (stereo partly drawn) [Seq. ID. 95] (H-[Ac3c]V[Aib]EIQ[ξαMePhe(2-F)][Nle]HQ[hArg][Aib]K[ξαMePhe(2,6-F2)]-NH2) | 0.5 | 100 | 100 | 0.5 | (9) h | 80 | 0.5 | 100 | – | – | – | – |
| CCCC[C@H](NC(=O)C(C)(Cc1ccccc1F)NC(=O)[C@H](CCC(N)=O)NC(=O)[C@@H](NC(=O)[C@H](CCC(=O)O)NC(=O)C1(NC(=O)[C@@H](NC(=O)C2(N)CCCC2)C(C)C)CCCC1)[C@@H](C)CC)C(=O)N[C@@H](Cc1c[nH]cn1)C(=O)N[C@@H](CCC(N)=O)C(=O)N[C@@H](CCCCNC(=N)N)C(=O)N1CCCC1(C)C(=O)N[C@@H](CCCCN)C(=O)NC(C)(Cc1c(F)cccc1F)C(N)=O (stereo partly drawn) [Seq. ID. 100] (H-[Ac5c]V[Ac5c]EIQ[ξαMePhe(2-F)][Nle]HQ[hArg][ξαMeP]K[ξαMePhe(2,6-F2)]-NH2) | 2 | 82 | 49 | 4 | – | 0 | > 24 | 00 | > 24 | – | – | – |
| CCCC[C@H](NC(=O)C(C)(Cc1c(F)cccc1F)NC(=O)[C@H](CCC(N)=O)NC(=O)[C@@H](NC(=O)[C@H](CCC(=O)O)NC(=O)C1(NC(=O)[C@@H](NC(=O)C2(N)CCCC2)C(C)C)CCCC1)[C@@H](C)CC)C(=O)N[C@@H](Cc1c[nH]cn1)C(=O)N[C@@H](CCC(N)=O)C(=O)N[C@@H](CCCCNC(=N)N)C(=O)N[C@@H](C)C(=O)N[C@@H](CCCCN)C(=O)NC(C)(Cc1c(F)cccc1F)C(N)=O (stereo partly drawn) [Seq. ID. 115] (H-[Ac5c]V[Ac5c]EIQ[ξαMePhe(2,6-F2)][Nle]HQ[hArg]AK[ξαMePhe(2,6-F2)]-NH2) | 1 | 79 | 12 | – | – | 78 | – | 55 | 8 | (8) h | (6) h | – |
| CCCC[C@H](NC(=O)[C@](C)(Cc1ccccc1F)NC(=O)[C@H](CCC(N)=O)NC(=O)[C@@H](NC(=O)[C@H](CCC(=O)O)NC(=O)C(C)(C)NC(=O)[C@@H](NC(=O)C(C)(C)N)C(C)C)[C@@H](C)CC)C(=O)N[C@@H](Cc1c[nH]cn1)C(=O)N[C@@H](CCC(N)=O)C(=O)N[C@@H](CCCCNC(=N)N)C(=O)NC(C)(C)C(=O)N[C@@H](CCCNC(N)=O)C(=O)N[C@@](C)(Cc1c(F)cccc1F)C(N)=O [Seq. ID. 142] (H-[Aib]V[Aib]EIQ[αMePhe(2-F)][Nle]HQ[hArg][Aib][Cit][αMePhe(2,6-F2)]-NH2) | 1 | 82 | 13 | – | – | 80 | – | 50 | 8 | (8) h | (6) h | – |
| CCCC[C@H](NC(=O)C(C)(Cc1ccccc1F)NC(=O)[C@H](CCC(N)=O)NC(=O)[C@@H](NC(=O)[C@H](CCC(=O)O)NC(=O)C(C)(C)NC(=O)[C@@H](NC(=O)C(C)(C)N)C(C)C)[C@@H](C)CC)C(=O)N[C@@H](Cc1c[nH]cn1)C(=O)N[C@@H](CCC(N)=O)C(=O)N[C@@H](CCCCNC(=N)N)C(=O)N[C@@H](C)C(=O)NC(C)(C)C(=O)NC(C)(Cc1ccccc1F)C(N)=O (stereo partly drawn) [Seq. ID. 161] (H-[Aib]V[Aib]EIQ[ξαMePhe(2-F)][Nle]HQ[hArg]A[Aib][ξαMePhe(2-F)]-NH2) | 1 | 80 | 14 | – | – | 78 | – | 43 | 8 | (8) h | (6) h | – |
| CCCC[C@H](NC(=O)C(C)(Cc1ccccc1F)NC(=O)[C@H](CCC(N)=O)NC(=O)[C@@H](NC(=O)[C@H](CCC(=O)O)NC(=O)C(C)(C)NC(=O)[C@@H](NC(=O)C(C)(C)N)C(C)C)[C@@H](C)CC)C(=O)N[C@@H](Cc1c[nH]cn1)C(=O)N[C@@H](CCC(N)=O)C(=O)N[C@@H](CCCCNC(=N)N)C(=O)NC(C)(C)C(=O)NC(C)(C)C(=O)NC(C)(Cc1c(F)cccc1F)C(N)=O (stereo partly drawn) [Seq. ID. 182] (H-[Aib]V[Aib]EIQ[ξαMePhe(2-F)][Nle]HQ[hArg][Aib][Aib][ξαMePhe(2,6-F2)]-NH2) | – | 26 | 00 | > 24 | – | 0 | > 24 | 00 | > 24 | – | – | (5) h |
| CCCC[C@H](NC(=O)C(C)(Cc1c(F)cccc1F)NC(=O)[C@H](CCC(N)=O)NC(=O)[C@@H](NC(=O)[C@H](CCC(=O)O)NC(=O)C(C)(C)NC(=O)[C@@H](NC(=O)C1(N)CCCC1)C(C)C)[C@@H](C)CC)C(=O)N[C@@H](Cc1c[nH]cn1)C(=O)N[C@@H](CCC(N)=O)C(=O)N[C@@H](CCCCNC(=N)N)C(=O)NC(C)(C)C(=O)NC(C)(Cc1c(F)cccc1F)C(=O)NC(C)(Cc1ccccc1F)C(N)=O (stereo partly drawn) [Seq. ID. 220] (H-[Ac5c]V[Aib]EIQ[ξαMePhe(2,6-F2)][Nle]HQ[hArg][Aib][ξαMePhe(2,6-F2)][ξαMePhe(2-F)]-NH2) | 1 | 83 | 12 | – | – | 75 | – | 46 | 8 | (8) h | (6) h | – |
